The nature of data set [1]: Measurement of maximum absorption wavelength, maximum fluorescence wavelength and fluorescence quantum yield in solvents. It is filed as physicochemical. As for the experimental part: Using a luminescent quantum yield measurement apparatus ([…]-01, manufactured by Hamamatsu Photonics K.K.), the maximum absorption wavelength (λabs/nm), the maximum fluorescence wavelength (λflu/nm), and the fluorescence quantum yield (Φf) of the compound in each solvent were measured. The absorption spectrum was measured using an ultraviolet and visible spectrophotometer (Ubest-550, manufactured by JASCO Corporation), and the fluorescence emission spectrum was measured using a fluorescence spectrophotometer (F-7000, manufactured by Hitachi, Ltd.)

The nature of data set [2]: Measurement of fluorescence lifetime in solvents. It is filed as physicochemical. As for the experimental part: The fluorescence lifetime (τf) of each compound in each solvent was measured using a compact fluorescence lifetime measurement apparatus (Quntaurus-Tau, manufactured by Hamamatsu Photonics K.K.).
Data set [3] concerns lipid droplets in HeLa cells. Description: Fluorescence imaging of lipid droplets in oleic acid-treated HeLa cells. It is filed as cell-based. From the text: Since LipiDye requires use of an excitation wavelength of about 405 nm, there is a concern about phototoxicity to cells in cases of long observation.
Data set [4] deals with 3T3-L1 cells (adipocytes). Description: Intracellular photostability under excitation light in 3T3-L1 cells. Conditions: summary grade, Table 3. It is filed as cell-based. As for the experimental part:
(§1) Using a fluorescence microscope (IX71, manufactured by Olympus Corporation), fluorescence imaging images of cells were acquired over time, and the photostability (It/I0) and the retention property were measured.
The photostability and the retention property are important factors in long-term measurement for, for example, tracing the processes of formation, fusion, and degradation of lipid droplets. Each fluorescent reagent was added to 3T3-L1 cells (adipocytes) to a final concentration of 100 nM, and the cells were cultured for 30 minutes. After washing the cells, the cells were irradiated with an excitation light required for imaging (450 to 500 nm; for LipiDye, an excitation wavelength of 400 to 440 nm), to evaluate the photostability. By regarding the time immediately after the irradiation as Second 0, imaging images were acquired at 20-second intervals for analysis of the image intensity.

Data set [5] deals with 3T3-L1 cells (adipocytes). Description: Intracellular retention property in 3T3-L1 cells. Type of data set: cell-based. As for the experimental part:
as §1
For evaluation of the intracellular retention property of each reagent, each fluorescent reagent was added to 3T3-L1 cells (adipocytes) to a final concentration of 100 nM (for Lipi-Green, 500 nM), and imaging images were acquired after 30 minutes of culture and 24 hours after washing away of the reagent.

Where [6] appears, read: 100 nM (Lipi-Green 500 nM), 3T3-L1 cells, 24 hours after washing away of the reagent.

The values below come from patent publication US12306194B2, “Reagent for fluorescence imaging of lipid droplets in cell and tissue” (NATIONAL UNIVERSITY CORPORATION GUNMA UNIVERSITY, priority 2019, dated 2025).

Structures are written as SMILES.

Take `CCN(CC)c1ccc2cc3cc(-c4nc5ccccc5n4C)c(=O)oc3cc2c1` [PC6NMe, 8-(Diethylamino)-3-(1-methyl-1H-benzo[d]imidazol-2-yl)-2H-benzo[g]chromen-2-one]: in data set [1] (in Bu2O (dibutyl ether)), the “Φf (fluorescence quantum yield)” value was 0.67, the “λmax abs (maximum absorption wavelength)” value is on record as 438 nm and the “λmax flu (maximum fluorescence wavelength)” value (“λmax flu” below) stood at 512 nm. Also, in data set [1] (in MeCN), the “Φf (fluorescence quantum yield)” value turned out to be 0.77, the “λmax abs (maximum absorption wavelength)” value is recorded as 449 nm and the “λmax flu” value amounted to 590 nm. For the same compound, the “τf (fluorescence lifetime)” value in data set [2] (in Bu2O (dibutyl ether)) turned out to be 3.53 ns. Besides, the “τf (fluorescence lifetime)” value in data set [2] (in MeCN) worked out at 4.08 ns.
In the case of `CCN(CC)c1ccc2cc3cc(-c4nc5ccccc5[nH]4)c(=O)oc3cc2c1` [PC6NH, 3-(1H-Benzo[d]imidazol-2-yl)-8-(diethylamino)-2H-benzo[g]chromen-2-one], the figures for the “Φf (fluorescence quantum yield)” value in data set [1] (in Bu2O (dibutyl ether)) and in data set [1] (in MeCN) were 0.89 and 0.82, respectively. For the same compound, the “λmax abs (maximum absorption wavelength)” value stood at 458 nm in data set [1] (in Bu2O (dibutyl ether)) and 477 nm in data set [1] (in MeCN). For the same compound, the “λmax flu” value in data set [1] (in Bu2O (dibutyl ether)) is recorded as 523 nm; in data set [1] (in MeCN), 604 nm. Moreover, the “τf (fluorescence lifetime)” value in data set [2] (in Bu2O (dibutyl ether)) is on record as 2.79 ns; in data set [2] (in MeCN) it was 3.78 ns.
Take `CCN(CC)c1ccc2nc3c4ccccc4c(=O)cc-3oc2c1` [Nile Red]: in data set [3] (100 nM reagent, 30 minutes, 400 μM oleic acid 48 hours), the “imaging of lipid droplets / lipid droplet selectivity in HeLa cells” value is recorded as “low lipid droplet selectivity”. Besides, the “fluorescence intensity of HeLa cells” value in data set [3] (100 nM reagent, 30 minutes, compared with BODIPY493/503 or Lipi Green) is “higher fluorescence intensities”. Besides, the Brightness in cells result in data set [3] (summary grade, Table 3) is “◯”. The Photostability result in data set [4] is recorded as “Δ”. Moreover, the intracellular retention property entry is “remarkable decreases in the fluorescence intensity” in data set [5] (setting [6]) and “Δ” in data set [5] (summary grade, Table 3).
On to `CCN(CC)c1ccc2cc3cc(-c4nc5ccccc5o4)c(=O)oc3cc2c1` [PC6O, 3-(Benzo[d]oxazol-2-yl)-8-(diethylamino)-2H-benzo[g]chromen-2-one], for which, in data set [1] (in Bu2O (dibutyl ether)), the “Φf (fluorescence quantum yield)” value is 0.86, the “λmax abs (maximum absorption wavelength)” value is recorded as 460 nm and the “λmax flu” value is given as 530 nm. In addition, in data set [1] (in MeCN), the “Φf (fluorescence quantum yield)” value is recorded as 0.80, the “λmax abs (maximum absorption wavelength)” value is given as 478 nm and the “λmax flu” value was determined as 613 nm. In addition, the “τf (fluorescence lifetime)” value in data set [2] (in Bu2O (dibutyl ether)) was found to be 2.83 ns. For the same compound, the “τf (fluorescence lifetime)” value in data set [2] (in MeCN) was 3.70 ns.
Turning to `CC1=CC(C)=[N+]2C1=C(C)c1c(C)cc(C)n1[B-]2(F)F` [BODIPY493/503], in data set [3] (summary grade, Table 3), the Brightness in cells entry is listed as “Δ” and the “Selectivity for lipid droplets” value is “◯”. Besides, the intracellular retention property entry in data set [5] (setting [6]) was “remarkable decreases in the fluorescence intensity”.
